Results on 8 molecules are retold here after ChEMBL document CHEMBL1142804, “Design, synthesis, and evaluation of novelly substituted benzimidazole compounds as angiotensin II receptor antagonists” (Bioorg Med Chem Lett, 2005).

The structures appear in SMILES notation.

What all share (assay type): functional
A short description of assay [1]: Competitive antagonism of Angiotensin II receptor in endothelium removed isolated rat aortic ring; (n = 5). As to conditions: read-out: pA2 (converted).
A short description of assay [2]: Competitive antagonism of Angiotensin II receptor in endothelium removed isolated rat aortic ring.
Assay [3] can be described thus: Noncompetitive antagonism of Angiotensin II receptor in endothelium removed isolated rat aortic ring.
The nature of assay [4]: Noncompetitive antagonism of Angiotensin II receptor in endothelium removed isolated rat aortic ring; (n = 5). As to conditions: read-out: pA2 (converted).

Take `CCOc1nc2cccc(C(=O)O)c2n1Cc1ccc(-c2ccccc2-c2nnn[nH]2)cc1` [CANDESARTAN]: in assay [1], the Kb is 9.55 nM. In assay [2], the pA10 amounted to 7.1.

`CCc1nc2c([N+](=O)[O-])cccc2n1Cc1ccc(-c2ccccc2C(=O)O)cc1` registered a pA10 in assay [3] of 3.4. The Kb in assay [4] is 100 nM.

In assay [3], `CCOCc1nc2c([N+](=O)[O-])cccc2n1Cc1ccc(-c2ccccc2C(=O)O)cc1` showed a pA10 of 1.7. The Kb in assay [4] was 50.1 nM.

Regarding `CCCCc1nc(Cl)c(CO)n1Cc1ccc(-c2ccccc2-c2nnn[nH]2)cc1` [LOSARTAN], the Kb in assay [1] is 39.8 nM. The pA10 in assay [2] came out at 6.5.

With `CCCCc1nc2c(N)cccc2n1Cc1ccc(-c2ccccc2C(=O)O)cc1`, in assay [1], the Kb was 15.8 nM. For the same molecule, the pA10 in assay [2] is recorded as 6.9.

On to `CCCCc1nc2c([N+](=O)[O-])cccc2n1Cc1ccc(-c2ccccc2C(=O)O)cc1`, for which the pA10 in assay [3] was found to be 1.8. Besides, the Kb in assay [4] was 3.16 nM.

For the molecule `CCCc1nc2c([N+](=O)[O-])cccc2n1Cc1ccc(-c2ccccc2C(=O)O)cc1`, in assay [3], the pA10 came to 2.9. In assay [4], the Kb is 79.4 nM.

Consider `CCCCc1nc2ccccc2n1Cc1ccc(-c2ccccc2C(=O)O)cc1`, for which the Kb in assay [1] was 355 nM. The molecule also registered a pA10 in assay [2] of 5.81.
